From patent US5217960A, “Erythromycin derivatives” (priority 1991, dated 1993)
Converted amounts (≈) assume the structure as drawn. Like-named read-outs stand apart in the source and are kept apart here.

Assays:
Type in all cases: cell-based
[1] = system: STAPHYLOCOCCUS AUREUS ATCC 6538P; assay: In vitro antibacterial activity, agar dilution MIC; details: ATCC6538P, 24 h
[2] = system: STAPHYLOCOCCUS AUREUS A5177; assay: In vitro antibacterial activity, agar dilution MIC
STAPHYLOCOCCUS AUREUS 45 = assay: In vitro antibacterial activity, agar dilution MIC
[3] = system: STAPHYLOCOCCUS AUREUS 642A; assay: In vitro antibacterial activity, agar dilution MIC
[4] = system: STAPHYLOCOCCUS AUREUS NCTC 10649; assay: In vitro antibacterial activity, agar dilution MIC
[5] = system: STAPHYLOCOCCUS AUREUS 1775; assay: In vitro antibacterial activity, agar dilution MIC; details: S. aureus 1775, BHI agar, 35-37° C., 20 to 24 hours, read-out: MIC
[6] = system: STAPHYLOCOCCUS EPIDERMIDIS 3519; assay: microbe, parasite or virus in culture; details: 24 h
EN[…] ATCC 8043 = assay: In vitro antibacterial activity, agar dilution MIC; details: Enterococcus faecium, ATCC8043, 24 h
Protocol: (§1) Representative compounds of the present invention were assayed in vitro for antibacterial activity as follows: Twelve petri dishes containing successive aqueous dilutions of the test compound mixed with 10 ml of sterilized Brain Heart Infusion (BHI) agar (Difco 0418-01-5) were prepared. Each plate was inoculated with 1:100 (or 1:10 for slow-growing strains, such as Micrococcus and Streptococcus) dilutions of up to 32 different microorganisms, using a Steers replicator block. The inoculated plates were incubated at 35°-37° C. for 20 to 24 hours. In addition, a control plate, using BHI agar containing no test compound, was prepared and incubated at the beginning and end of each test.
(§2) An additional plate containing a compound having known susceptibility patterns for the organisms being tested and belonging to the same antibiotic class as the test compound was also prepared and incubated as a further control, as well as to provide test-to-test comparability. Erythromycin A was used for this purpose.
(§3) After incubation, each disk was read. The minimum inhibitory concentration (MIC) was defined as the lowest concentration of drug yielding no growth, a slight haze, or sparsely isolated colonies on the inoculum spot as compared to the growth control. The results of this assay, shown below in Tables 1 and 2, support the conclusion that the compounds of the invention are effective antibacterial agents.

M[…] ATCC 4698 = assay: In vitro antibacterial activity, agar dilution MIC; details: Micrococcus luteus, ATCC4698, 24 h
Protocol: as §1, §2, §3

M[…] ATCC 9341 = assay: In vitro antibacterial activity, agar dilution MIC; details: Micrococcus luteus, ATCC9341, 24 h
Protocol: as §1, §2, §3

[7] = system: PSEUDOMONAS AERUGINOSA K799/61; assay: In vitro antibacterial activity, agar dilution MIC; details: P. aeruginosa K799/61, BHI agar, 35-37° C., 20 to 24 hours, read-out: MIC
Protocol: as §1, §2, §3

[8] = system: STREPTOCOCCUS BOVIS A5169; assay: In vitro antibacterial activity, agar dilution MIC; details: 24 h
[9] = system: STREPTOCOCCUS PYOGENES 930 CONST; assay: In vitro antibacterial activity, agar dilution MIC; details: S. pyogenes 930 CONST, BHI agar, 35-37° C., 20 to 24 hours, read-out: MIC
[10] = system: STREPTOCOCCUS PYOGENES 2548 INDUC; assay: In vitro antibacterial activity, agar dilution MIC
ESCHERICHIA COLI JUHL = assay: microbe, parasite or virus in culture; details: E. coli JUHL, BHI agar, 35-37° C., 20 to 24 hours, read-out: MIC
ESCHERICHIA COLI SS = assay: In vitro antibacterial activity, agar dilution MIC
ESCHERICHIA COLI DC-2 = assay: In vitro antibacterial activity, agar dilution MIC; details: E. coli DC-2, BHI agar, 35-37° C., 20 to 24 hours, read-out: MIC
ESCHERICHIA COLI H560 = assay: In vitro antibacterial activity, agar dilution MIC
ESCHERICHIA COLI KNK 437 = assay: microbe, parasite or virus in culture; details: E. coli KNK 437, BHI agar, 35-37° C., 20 to 24 hours
[11] = system: ENTEROBACTER AEROGENES ATCC 13048; assay: In vitro antibacterial activity, agar dilution MIC; details: Klebsiella aerogenes, ATCC13048; E. aerogenes ATCC 13048; BHI agar, 35-37° C., 20 to 24 hours; read-out: MIC
[12] = system: KLEBSIELLA PNEUMONIAE ATCC 8045; assay: In vitro antibacterial activity, agar dilution MIC; details: ATCC8045, K. pneumoniae ATCC 8045, BHI agar, 35-37° C., 20 to 24 hours, read-out: MIC
[13] = system: PROVIDENCIA STUARTII CMX 640; assay: microbe, parasite or virus in culture; details: P. stuartii CMX 640, BHI agar, 35-37° C., 20 to 24 hours
[14] = system: PSEUDOMONAS AERUGINOSA BMH10; assay: In vitro antibacterial activity, agar dilution MIC
[15] = system: PSEUDOMONAS AERUGINOSA A5007; assay: In vitro antibacterial activity, agar dilution MIC; details: P. aeruginosa A5007, BHI agar, 35-37° C., 20 to 24 hours
[16] = system: PSEUDOMONAS AERUGINOSA K799/WT; assay: In vitro antibacterial activity, agar dilution MIC; details: P. aeruginosa K799/WT, BHI agar, 35-37° C., 20 to 24 hours
PSEUDOMONAS CEPACIA 296I = assay: In vitro antibacterial activity, agar dilution MIC; details: Burkholderia cepacia; P. cepacia 296I; BHI agar, 35-37° C., 20 to 24 hours; read-out: MIC
[17] = system: ACINETOBACTER CALCOACETICUS CMX 669; assay: In vitro antibacterial activity, agar dilution MIC; details: A. calcoaceticus CMX 669, BHI agar, 35-37° C., 20 to 24 hours
[18] = system: STAPHYLOCOCCUS AUREUS CMX 553; assay: In vitro antibacterial activity, agar dilution MIC; details: 24 h
STR[…] 508 = assay: In vitro antibacterial activity, agar dilution MIC; details: Streptococcus agalactiae, 24 h
Protocol: as §1, §2
(§4) After incubation, each disk was read. The minimum inhibitory concentration (MIC) was defined as the lowest concentration of drug yielding no growth, a slight haze, or sparsely isolated colonies on the inoculum spot as compared to the growth control.

STR[…] EES61 = assay: In vitro antibacterial activity, agar dilution MIC; details: Streptococcus pyogenes, 24 h
Protocol: as §1, §2, §4

[19] = S. aureus A5177, BHI agar, 35-37° C., 20 to 24 hours, read-out: MIC
[20] = P. aeruginosa BMH10, BHI agar, 35-37° C., 20 to 24 hours, read-out: MIC

Row | SMILES | MIC [1] [µg/mL] | MIC [2, 19] [µg/mL] | MIC [5] [µg/mL] | MIC [6] [µg/mL] | MIC (EN[…] ATCC 8043) [µg/mL] | MIC (M[…] ATCC 4698) [µg/mL] | MIC (M[…] ATCC 9341) [µg/mL] | MIC [7] [µg/mL] | MIC [8] [µg/mL] | MIC [9] [µg/mL] | MIC (ESCHERICHIA COLI JUHL) [µg/mL] | MIC (ESCHERICHIA COLI DC-2) [µg/mL] | MIC (ESCHERICHIA COLI KNK 437) [µg/mL] | MIC [11] [µg/mL] | MIC [12] [µg/mL] | MIC [13] [µg/mL] | MIC [15] [µg/mL] | MIC [16] [µg/mL] | MIC (PSEUDOMONAS CEPACIA 296I) [µg/mL] | MIC [17] [µg/mL] | further results
1 | CC[C@H]1OC(=O)[C@H](C)[C@@H](O[C@H]2C[C@@](C)(OC)[C@@H](O)[C@H](C)O2)[C@H](C)[C@@H](O[C@@H]2O[C@H](C)C[C@H](N(C)C)[C@H]2O)[C@](C)(O)C[C@@H](C)[C@@H](N(C)C)[C@H](C)[C@@H](O)[C@@]12CO2 [Compound 8, (9R)-9-deoxo-9-(N,N-dimethylamino)-12,21-epoxyerythromycin A] | 0.78 (≈ 1.02 µM) | 50 (≈ 65.7 µM) | > 100 | 0.39 (≈ 0.512 µM) | 0.02 (≈ 0.0263 µM) | 0.1 (≈ 0.131 µM) | 0.1 (≈ 0.131 µM) | 12.5 (≈ 16.4 µM) | 0.02 (≈ 0.0263 µM) | > 100 | 100 (≈ 131 µM) | 50 (≈ 65.7 µM) | 50 (≈ 65.7 µM) | > 100 | 100 (≈ 131 µM) | > 100 | > 100 | > 100 | > 100 | 12.5 (≈ 16.4 µM) | MIC (STAPHYLOCOCCUS AUREUS 45; S. aureus 45, BHI agar, 35-37° C., 20 to 24 hours, read-out: MIC): 0.78 µg/mL (≈ 1.02 µM); MIC ([3]; S. aureus 642A, BHI agar, 35-37° C., 20 to 24 hours, read-out: MIC): 1.56 µg/mL (≈ 2.05 µM); MIC ([4]; NCTC10649, S. aureus NCTC 10649, BHI agar, 35-37° C., 20 to 24 hours, read-out: MIC): 0.78 µg/mL (≈ 1.02 µM); MIC ([10]; 24 h): 6.2 µg/mL (≈ 8.15 µM); MIC (ESCHERICHIA COLI SS; E. coli SS, BHI agar, 35-37° C., 20 to 24 hours, read-out: MIC): 0.39 µg/mL (≈ 0.512 µM); MIC (ESCHERICHIA COLI H560; 24 h): 25 µg/mL (≈ 32.9 µM); MIC ([14]; 24 h): > 100 µg/mL
2 | CC[C@H]1OC(=O)[C@H](C)[C@@H](O[C@H]2C[C@@](C)(OC)[C@@H](O)[C@H](C)O2)[C@H](C)[C@@H](O[C@@H]2O[C@H](C)C[C@H](N(C)C)[C@H]2O)[C@](C)(O)C[C@@H](C)[C@@H](N(C)C)[C@H](C)[C@@H](O)[C@@]1(O)CO [Compound 10, (9R)-9-deoxo-9-(N,N-dimethylamino)-21-hydroxyerythromycin A] | 25 (≈ 32.1 µM) | – | > 100 | 25 (≈ 32.1 µM) | 12.5 (≈ 16 µM) | 3.1 (≈ 3.98 µM) | 6.2 (≈ 7.96 µM) | 50 (≈ 64.2 µM) | 3.1 (≈ 3.98 µM) | > 100 | > 100 | > 100 | > 100 | > 100 | > 100 | > 100 | > 100 | > 100 | > 100 | > 100 | MIC ([2]; 24 h): > 100 µg/mL; MIC (STAPHYLOCOCCUS AUREUS 45; 24 h): 25 µg/mL (≈ 32.1 µM); MIC ([3]; 24 h): 25 µg/mL (≈ 32.1 µM); MIC ([4]; NCTC10649, 24 h): 12.5 µg/mL (≈ 16 µM); MIC [18]: 25 µg/mL (≈ 32.1 µM); MIC (STR[…] 508): 3.1 µg/mL (≈ 3.98 µM); MIC (STR[…] EES61): 1.56 µg/mL (≈ 2 µM); MIC ([10]; S. pyogenes 2548 INDUC, BHI agar, 35-37° C., 20 to 24 hours, read-out: MIC): 100 µg/mL (≈ 128 µM); MIC (ESCHERICHIA COLI SS; 24 h): 1.56 µg/mL (≈ 2 µM); MIC (ESCHERICHIA COLI H560; E. coli H560, BHI agar, 35-37° C., 20 to 24 hours, read-out: MIC): 100 µg/mL (≈ 128 µM); MIC [14, 20]: > 100 µg/mL
3 | CC[C@H]1OC(=O)[C@H](C)[C@@H](O[C@H]2C[C@@](C)(OC)[C@@H](O)[C@H](C)O2)[C@H](C)[C@@H](O[C@@H]2O[C@H](C)C[C@H](N(C)C)[C@H]2O)[C@](C)(O)C[C@@H](C)[C@@H](N(C)C)[C@H](C)[C@@H](O)[C@H]1CO [Compound 11, (9R)-9-deoxo-9-(N,N-dimethylamino)-21-hydroxyerythromycin B] | 6.2 (≈ 8.13 µM) | 100 (≈ 131 µM) | > 100 | 6.2 (≈ 8.13 µM) | 1.56 (≈ 2.04 µM) | 0.78 (≈ 1.02 µM) | 0.78 (≈ 1.02 µM) | 12.5 (≈ 16.4 µM) | 0.78 (≈ 1.02 µM) | > 100 | > 100 | > 100 | > 100 | > 100 | > 100 | > 100 | > 100 | > 100 | > 100 | > 100 | MIC (STAPHYLOCOCCUS AUREUS 45; 24 h): 6.2 µg/mL (≈ 8.13 µM); MIC ([3]; 24 h): 6.2 µg/mL (≈ 8.13 µM); MIC ([4]; NCTC10649, 24 h): 6.2 µg/mL (≈ 8.13 µM); MIC [18]: 6.2 µg/mL (≈ 8.13 µM); MIC (STR[…] 508): 0.78 µg/mL (≈ 1.02 µM); MIC (STR[…] EES61): 0.39 µg/mL (≈ 0.511 µM); MIC ([10]; 24 h): 50 µg/mL (≈ 65.5 µM); MIC (ESCHERICHIA COLI SS; 24 h): 0.39 µg/mL (≈ 0.511 µM); MIC (ESCHERICHIA COLI H560; 24 h): 50 µg/mL (≈ 65.5 µM); MIC [14, 20]: > 100 µg/mL
